Assay results published in US11795150B2, “Synthesis of triethylenetetramines” (Philera New Zealand Limited, priority 2004, dated 2023).

Conditions: 80° C. for nine days

## NCCNCCNCCN.O=C(O)/C=C/C(=O)O.O=C(O)/C=C/C(=O)O.O=C(O)/C=C/C(=O)O.O=C(O)/C=C/C(=O)O [Fumaric, triethylenetetramine tetrafumarate]
  Changes in IR, 1H-NMR and DSC after heat exposure: no changes

## NCCNCCNCCN.O=C(O)CCC(=O)O.O=C(O)CCC(=O)O [Succinic, triethylenetetramine disuccinate]
  Changes in IR, 1H-NMR and DSC after heat exposure: no changes

## NCCNCCNCCN.O=C(O)/C=C\C(=O)O.O=C(O)/C=C\C(=O)O.O=C(O)/C=C\C(=O)O.O=C(O)/C=C\C(=O)O [Maleic, triethylenetetramine tetramaleate]
  Changes in IR, 1H-NMR and DSC after heat exposure: no changes
